One may read the IC50 as the concentration that inhibits the measured activity by half. Higher therefore signals weaker potency in that assay.

For this assay, the system named is Ileum. The assay can be described thus: Antagonism of slow reacting substance of anaphylaxis-induced contraction in guinea pig ileum treated 30 secs before SRS-A challenge. The class given is functional, tissue-based. Conditions: Cavia porcellus.
On to `O=C([O-])c1cc(=O)c2ccc(OCC(O)COc3ccccc3)cc2o1.[Na+]` (stereo not drawn), for which half-maximal inhibition (IC50) was put at 7 µg/mL.

Turning to `O=C([O-])c1cc(=O)c2c(OCCCOc3ccccc3)cccc2o1.[Na+]`, 35 µg/mL corresponded to half-maximal inhibition (IC50).

Compound `CCCc1ccccc1OCC(O)COc1cc2oc(C(=O)[O-])cc(=O)c2cc1CCC.[Na+]` (stereo not drawn) returned an IC50 of 1.6 µg/mL.

Compound `O=C([O-])c1cc(=O)c2ccc(OCCCCCCCOc3ccccc3)cc2o1.[Na+]` returned an IC50 of 1.8 µg/mL.

Regarding `O=C([O-])c1cc(=O)c2ccc(OCCCCCc3ccccc3)cc2o1.[Na+]`, the midpoint of inhibition, the IC50, lay at 0.6 µg/mL.

Compound `O=C([O-])c1cc(=O)c2cc(CCCCCc3ccccc3)ccc2o1.[Na+]` came in with a half-maximal inhibitory concentration (IC50) of 4.5 µg/mL.

In turn, `O=C([O-])c1cc(=O)c2ccc(OCCCCCOc3ccccc3)cc2o1.[Na+]` registered an IC50 of 0.4 µg/mL.

`O=C([O-])c1cc(=O)c2cc(OCCCCCOc3ccccc3)ccc2o1.[Na+]`: 3.3 µg/mL corresponded to half-maximal inhibition (IC50).

Compound `O=C([O-])c1cc(=O)c2ccc(OCCCCCOc3cccc(OCc4ccccc4)c3)cc2o1.[Na+]` registered an IC50 of 1 µg/mL.

The compound `O=C([O-])c1cc(=O)c2cc(CCCc3ccccc3)ccc2o1.[Na+]` came in with an IC50 of 3 µg/mL.

As to `C=CCc1ccccc1OCC(O)COc1ccc2c(=O)cc(C(=O)[O-])oc2c1.[Na+]` (stereo not drawn), inhibition was half-maximal at 1.8 µg/mL (IC50).

For the compound `C=CCc1c(OCC(O)COc2ccc3c(=O)cc(C(=O)[O-])oc3c2CC=C)ccc(C(C)=O)c1O.[Na+]` (stereo not drawn), the IC50 turned out to be 0.05 µg/mL.

Take `CCCc1ccccc1OCCCOc1cc2oc(C(=O)[O-])cc(=O)c2cc1CCC.[Na+]`: inhibition was half-maximal at 18 µg/mL (IC50).

`CCCc1c(OCCCOc2ccc3c(=O)cc(C(=O)[O-])oc3c2CCC)ccc(C(C)=O)c1O.[Na+]` showed an IC50 of 0.001 µg/mL.

In the case of `C=CCc1c(OCCCCCOc2ccc(C(=O)CN)cc2)ccc2c(=O)cc(C(=O)[O-])oc12.[Na+]`, it took 3.9 µg/mL to reach half-maximal inhibition (IC50).

Consider `O=C([O-])c1cc(=O)c2cccc(OCCCCCOc3ccccc3)c2o1.[Na+]`, for which inhibition was half-maximal at 9 µg/mL (IC50).

Compound `CC(=O)c1ccc(OCCCCCOc2ccc3c(=O)cc(C(=O)[O-])oc3c2)cc1O.[Na+]` showed an IC50 of 6.8 µg/mL.

The compound `O=C([O-])c1cc(=O)c2cccc(OCCCOc3ccccc3)c2o1.[Na+]` registered an IC50 of 50 µg/mL.

In the case of `CCCc1c(OCC(O)COc2cccc(O)c2C(C)=O)ccc2c(=O)cc(C(=O)[O-])oc12.[Na+]` (stereo not drawn), inhibition was half-maximal at 0.3 µg/mL (IC50).

For the compound `O=C([O-])c1cc(=O)c2ccc(SCCCCCOc3ccccc3)cc2o1.[Na+]`, the IC50 stood at 0.3 µg/mL.

`CCCc1c(OCC(O)COc2ccc3c(=O)cc(C(=O)[O-])oc3c2)ccc(C(C)=O)c1O.[Na+]` (stereo not drawn) came in with an IC50 of 0.08 µg/mL.

The compound `O=C([O-])c1cc(=O)c2c(OCCCCCCCCCOc3ccccc3)cccc2o1.[Na+]` returned an IC50 of 6 µg/mL.

`O=C([O-])c1cc(=O)c2ccc(OCCCOc3ccccc3)cc2o1.[Na+]` had an IC50 of 1.4 µg/mL.

The compound `C=CCc1ccc(OCCCCCOc2ccc3c(=O)cc(C(=O)[O-])oc3c2)c(C(C)=O)c1O.[Na+]` returned an IC50 of 0.9 µg/mL.

Turning to `CCCc1c(OCC(O)COc2ccc3c(=O)cc(C(=O)[O-])oc3c2CCC)ccc(C(C)=O)c1O.[Na+]` (stereo not drawn) [FPL-55712 SODIUM SALT], the IC50 was 0.005 µg/mL.

With `CC(=O)c1ccc(OCC(O)COc2ccc3c(=O)cc(C(=O)[O-])oc3c2)cc1O.[Na+]` (stereo not drawn), 28 µg/mL corresponded to half-maximal inhibition (IC50).

Take `C=CCc1c(OCC(O)COc2ccc3c(=O)cc(C(=O)[O-])oc3c2)ccc(C(C)=O)c1O.[Na+]` (stereo not drawn): inhibition was half-maximal at 0.1 µg/mL (IC50).

`CC(=O)c1ccc(OCCCCCOc2ccc3c(=O)cc(C(=O)[O-])oc3c2)cc1.[Na+]` registered an IC50 of 3.5 µg/mL.

Consider `CCCc1ccccc1OCC(O)COc1ccc2c(=O)cc(C(=O)[O-])oc2c1.[Na+]` (stereo not drawn), for which 2 µg/mL corresponded to half-maximal inhibition (IC50).

On to `C=CCc1c(OCCCCCOc2cccc(O)c2C(C)=O)ccc2c(=O)cc(C(=O)[O-])oc12.[Na+]`, for which 0.05 µg/mL corresponded to half-maximal inhibition (IC50).

The compound `O=C([O-])c1cc(=O)c2cc(Cc3ccccc3)ccc2o1.[Na+]` displayed an IC50 of 6.6 µg/mL.

On to `CCCc1ccccc1OCCCOc1ccc2c(=O)cc(C(=O)[O-])oc2c1CCC.[Na+]`, for which half-maximal inhibition (IC50) required 0.18 µg/mL.

On to `C=CCc1c(OCC(O)COc2ccc(C(C)=O)c(O)c2)ccc2c(=O)cc(C(=O)[O-])oc12.[Na+]` (stereo not drawn), for which 3.3 µg/mL corresponded to half-maximal inhibition (IC50).

As for `O=C([O-])c1cc(=O)c2cc(OCCCOc3ccccc3)ccc2o1.[Na+]`, the IC50 was 3.3 µg/mL.

Consider `CCCc1c(OCC(O)COc2ccc3c(=O)cc(C(=O)[O-])oc3c2CCC)ccc(C(C)=O)c1OC.[Na+]` (stereo not drawn), for which the IC50 was determined as 45 µg/mL.

The compound `O=C([O-])c1cc(=O)c2ccc(OCCCCCOc3cccc(O)c3)cc2o1.[Na+]` returned an IC50 of 1.5 µg/mL.

Compound `O=C([O-])c1cc(=O)c2ccc(OCCCCCSc3ccccc3)cc2o1.[Na+]` came in with an IC50 of 0.4 µg/mL.

`C=CCc1c(OCCCCCOc2ccc(C(C)=O)cc2)ccc2c(=O)cc(C(=O)[O-])oc12.[Na+]` returned an IC50 of 2.4 µg/mL.

As for `CCCc1c(OCc2ccccc2)cccc1OCC(O)COc1ccc2c(=O)cc(C(=O)[O-])oc2c1CCC.[Na+]` (stereo not drawn), the half-maximal inhibitory concentration (IC50) worked out at 1 µg/mL.

For the compound `C=CCc1c(OCCCCCOc2ccc3c(=O)cc(C(=O)[O-])oc3c2CC=C)ccc(C(C)=O)c1O.[Na+]`, inhibition was half-maximal at 1.23 µg/mL (IC50).

Compound `O=C([O-])c1cc(=O)c2ccc(OCCOc3ccccc3)cc2o1.[Na+]` came in with an IC50 of 15 µg/mL.

On to `CCCc1cc(C(C)=O)ccc1OCC(O)COc1ccc2c(=O)cc(C(=O)[O-])oc2c1CCC.[Na+]` (stereo not drawn), for which the IC50 came to 0.15 µg/mL.

With `O=C([O-])c1cc(=O)c2c(OCCCCCCCOc3ccccc3)cccc2o1.[Na+]`, the IC50 was determined as 0.8 µg/mL.

Regarding `CCCc1ccccc1OCC(O)COc1ccc2c(=O)cc(C(=O)[O-])oc2c1CCC.[Na+]` (stereo not drawn), the IC50 was 0.044 µg/mL.

Take `COc1cccc(OCCCCCOc2ccc3c(=O)cc(C(=O)[O-])oc3c2)c1.[Na+]`: the IC50 is 1.5 µg/mL.

`O=C([O-])c1cc(=O)c2ccc(OCCCCCCCCCOc3ccccc3)cc2o1.[Na+]` gave an IC50 of 1.8 µg/mL.

With `O=C([O-])c1cc(=O)c2c(OCCOc3ccccc3)cccc2o1.[Na+]`, the IC50 amounted to 100 µg/mL.

On to `O=C([O-])c1cc(=O)c2c(OCCCCCOc3ccccc3)cccc2o1.[Na+]`, for which the IC50 worked out at 17.5 µg/mL.

These data come from ChEMBL document CHEMBL3244188, “Antagonists of slow reacting substance of anaphylaxis. Synthesis of a series of chromone-2-carboxylic acids” (J Med Chem, 1977).
